Results as given in patent US12350259B2, “Methods of treating migraine” (Allergan Pharmaceuticals International Limited, priority 2021, dated 2025).
Read-outs that look alike come from different tables or passages of the source.

Legend:
[1] = target: MAO-A (Homo sapiens, UniProt P21397); assay: Enzyme inhibition; assay type: in vitro ADME; conditions: clinically relevant concentrations
[2] = Hepatic impairment study: atogepant plasma PK; assay type: in vivo, human; conditions: for AUC(0-t) / AUC(0-inf) / Cmax / Tmax / half-life / Vd/F: human, plasma, 60 mg; for Vd/F: read-out: Vz/F
Procedure: A multicenter, non-randomized, open-label, parallel-group, single-dose study was carried out to evaluate the PK, safety, and tolerability profiles of atogepant in participants with impaired hepatic function and matched healthy participants with normal hepatic function after a single 60-mg oral dose of atogepant. The primary outcome measures were PK parameters of atogepant derived from plasma concentrations. Safety measures were AEs, clinical laboratory determinations, vital sign parameters, electrocardiographic results, and physical examination findings. […] PK blood samples were collected for up to 72 hours after dose administration. The total duration of study participation for each participant was 5 days (Day −1 to Day 4), excluding the screening visit. […] Participants with moderate hepatic impairment were enrolled after 4 participants with mild hepatic impairment completed the study; participants with severe hepatic impairment were enrolled after 4 participants with moderate hepatic impairment completed the study. Participants with normal hepatic function were recruited after all patients with hepatic impairment were enrolled in the study. The safety and tolerability of atogepant was established in each group before the subsequent group was enrolled. Participants were enrolled into four groups: Group I (Mild Hepatic Impairment); Group II (Moderate Hepatic Impairment); Group III (Severe Hepatic Impairment); and Group IV (Normal Hepatic Impairment). Participants with normal hepatic function were recruited after the participants with hepatic impairment were enrolled in the study so that participants could be matched as closely as possible by age range, weight range, and gender among groups. Participants were matched specifically according to rage range, not exceeding 5 years between the means of the normal group and the 3 impaired hepatic function groups combined; weight range, which deviated <20% between the means of the normal group and the 3 impaired hepatic function groups combined; and gender, as much as possible to match the ratio of the normal group to the 3 impaired hepatic function groups combined. Participants received a single, oral, 60 mg tablet of atogepant. Each participant received only one dose of the study intervention. Participants received the atogepant tablet with 240 mL of water at the study center under fasted conditions. Following dose administration, participants continued their fast and remained seated upright and awake for 4 hours. Sampling for atogepant plasma concentrations was done starting on Day 1 at 0 hour (predose) and at 0.5, 1, 1.5, 2, 3, 4, 6, 8, 12, 16, 24, 36, 48, and 72 hours post dose.

[3] = Atogepant-itraconazole interaction study: safety and tolerability; assay type: in vivo, human
Source text: The primary objective of this study was to assess the effects of multiple dose itraconazole on the pharmacokinetics of a single dose of atogepant. The primary endpoints were PK parameters of atogepant derived from plasma concentrations. The secondary objectives of the study were to assess the safety and tolerability of atogepant and itraconazole given alone and in combination, and to establish the correlation between concentrations of atogepant in dried blood sample (DBS) (obtained via finger stick) and plasma. The secondary endpoints included AEs, clinical laboratory parameters, vital signs, ECG, and physical examination, and correlation of concentrations of atogepant in DBS and plasma. Subjects who satisfied the inclusion and exclusion criteria were assigned to a single fixed-treatment sequence in which they received Treatment A followed by Treatment B; there was a 7-day washout period between treatments. • Treatment A: Single oral 60 mg dose of atogepant (tablet) under fasted conditions on Day 1 • Treatment B • Days 8-14: Itraconazole 200 mg (tablet) orally once daily under fed conditions. • Day 15: Itraconazole 200 mg coadministered with atogepant 60 mg (tablet) under fasted conditions. • Days 16 to 17: Itraconazole 200 mg (tablet) once daily under fed conditions.

[4] = target: UGT1A1 (Homo sapiens, UniProt P22309); assay: Enzyme inhibition; assay type: in vitro ADME; conditions: clinically relevant concentrations
Chain of UGT1A1 (P22309 26-533): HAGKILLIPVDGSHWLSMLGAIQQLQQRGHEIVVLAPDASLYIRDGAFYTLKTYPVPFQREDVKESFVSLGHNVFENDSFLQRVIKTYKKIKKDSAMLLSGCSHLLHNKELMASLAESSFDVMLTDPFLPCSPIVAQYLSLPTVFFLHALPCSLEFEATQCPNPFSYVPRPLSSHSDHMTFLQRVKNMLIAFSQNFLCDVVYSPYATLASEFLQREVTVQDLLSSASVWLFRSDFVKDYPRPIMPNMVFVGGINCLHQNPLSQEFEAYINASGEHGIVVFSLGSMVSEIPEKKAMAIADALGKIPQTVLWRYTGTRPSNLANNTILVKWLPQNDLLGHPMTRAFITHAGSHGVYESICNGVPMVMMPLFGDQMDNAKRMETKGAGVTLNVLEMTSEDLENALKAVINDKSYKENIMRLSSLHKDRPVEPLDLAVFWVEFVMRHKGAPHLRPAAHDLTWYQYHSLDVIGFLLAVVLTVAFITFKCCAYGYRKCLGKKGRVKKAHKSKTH

[5] = po, mild hepatic impairment, single 60 mg oral dose
[6] = po, moderate hepatic impairment, single 60 mg oral dose
[7] = po, normal hepatic function, single 60 mg oral dose
[8] = po, severe hepatic impairment, single 60 mg oral dose
[9] = mild hepatic impairment vs normal hepatic function
[10] = mild hepatic impairment, single 60 mg oral dose
[11] = moderate hepatic impairment vs normal hepatic function
[12] = moderate hepatic impairment, single 60 mg oral dose
[13] = normal hepatic function, single 60 mg oral dose
[14] = severe hepatic impairment vs normal hepatic function
[15] = severe hepatic impairment, single 60 mg oral dose

Chain of MAO-A (P21397 whole entry): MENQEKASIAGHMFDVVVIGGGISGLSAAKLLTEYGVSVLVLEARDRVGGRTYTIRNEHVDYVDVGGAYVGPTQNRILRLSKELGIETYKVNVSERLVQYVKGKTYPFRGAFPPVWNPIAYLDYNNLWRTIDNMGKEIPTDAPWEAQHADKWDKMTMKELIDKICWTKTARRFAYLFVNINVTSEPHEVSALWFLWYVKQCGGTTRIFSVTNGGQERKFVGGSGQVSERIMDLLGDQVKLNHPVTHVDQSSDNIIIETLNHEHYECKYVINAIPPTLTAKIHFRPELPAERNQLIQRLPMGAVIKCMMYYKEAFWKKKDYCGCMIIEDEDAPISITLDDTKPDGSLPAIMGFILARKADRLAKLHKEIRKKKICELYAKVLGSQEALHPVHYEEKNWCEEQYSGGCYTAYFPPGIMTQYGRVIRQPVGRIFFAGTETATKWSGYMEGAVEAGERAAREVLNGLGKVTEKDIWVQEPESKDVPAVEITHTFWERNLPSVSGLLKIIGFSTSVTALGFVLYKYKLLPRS

## C[C@@H]1[C@H](c2c(F)ccc(F)c2F)C[C@H](NC(=O)c2cnc3c(c2)C[C@@]2(C3)C(=O)Nc3ncccc32)C(=O)N1CC(F)(F)F [atogepant, (3′S)-N-[(3S,5S,6R)-6-methyl-2-oxo-1-(2,2,2-trifluoroethyl)-5-(2,3,6-trifluorophenyl)piperidin-3-yl]-2′-oxo-1′,2′,5,7-tetrahydrospiro[cyclopenta[b]pyridine-6,3′-pyrrolo[2,3-b]pyridine]-3-carboxamide]
[1]
  inhibition of MAO-A: does not inhibit
[2]; oral, mild hepatic impairment, read-out: AUC0-t Geometric Least Squares Mean, Test
  AUC(0-t): 3250 ng·h/mL
[2]; oral, mild hepatic impairment, read-out: AUC0-∞ Geometric Least Squares Mean, Test
  AUC(0-inf): 3270 ng·h/mL
[2]; oral, mild hepatic impairment, read-out: Cmax Geometric Least Squares Mean, Test
  Cmax: 587 ng/mL
[2]; oral, moderate hepatic impairment, read-out: AUC0-t Geometric Least Squares Mean, Test
  AUC(0-t): 2980 ng·h/mL
[2]; oral, moderate hepatic impairment, read-out: AUC0-∞ Geometric Least Squares Mean, Test
  AUC(0-inf): 3030 ng·h/mL
[2]; oral, moderate hepatic impairment, read-out: Cmax Geometric Least Squares Mean, Test
  Cmax: 475 ng/mL
[2]; oral, normal hepatic function, read-out: AUC0-t Geometric Least Squares Mean, Reference
  AUC(0-t): 2610 ng·h/mL
[2]; oral, normal hepatic function, read-out: AUC0-∞ Geometric Least Squares Mean, Reference
  AUC(0-inf): 2630 ng·h/mL
[2]; oral, normal hepatic function, read-out: Cmax Geometric Least Squares Mean, Reference
  Cmax: 539 ng/mL
[2]; oral, severe hepatic impairment, read-out: AUC0-t Geometric Least Squares Mean, Test
  AUC(0-t): 3600 ng·h/mL
[2]; oral, severe hepatic impairment, read-out: AUC0-∞ Geometric Least Squares Mean, Test
  AUC(0-inf): 3630 ng·h/mL
[2]; oral, severe hepatic impairment, read-out: Cmax Geometric Least Squares Mean, Test
  Cmax: 515 ng/mL
[2]; po, mild hepatic impairment vs normal hepatic function, read-out: difference in median Tmax
  Tmax: 0 h
[2]; [5]
  half-life: 8.7 ± 4.06 h
  Vd/F: 249 ± 161 L
[2]; po, mild hepatic impairment, single 60 mg oral dose, read-out: AUC0-t
  AUC(0-t): 3470 ± 1420 ng·h/mL
[2]; po, mild hepatic impairment, single 60 mg oral dose, read-out: AUC0-∞
  AUC(0-inf): 3500 ± 1430 ng·h/mL
[2]; po, mild hepatic impairment, single 60 mg oral dose, read-out: Cmax
  Cmax: 666 ± 372 ng/mL
[2]; po, mild hepatic impairment, single 60 mg oral dose, read-out: Tmax, median (range)
  Tmax: 1.76 h
[2]; po, moderate hepatic impairment vs normal hepatic function, read-out: difference in median Tmax
  Tmax: 0.25 h
[2]; [6]
  half-life: 11.9 ± 7.6 h
  Vd/F: 404 ± 406 L
[2]; po, moderate hepatic impairment, single 60 mg oral dose, read-out: AUC0-t
  AUC(0-t): 3270 ± 1690 ng·h/mL
[2]; po, moderate hepatic impairment, single 60 mg oral dose, read-out: AUC0-∞
  AUC(0-inf): 3310 ± 1680 ng·h/mL
[2]; po, moderate hepatic impairment, single 60 mg oral dose, read-out: Cmax
  Cmax: 529 ± 227 ng/mL
[2]; po, moderate hepatic impairment, single 60 mg oral dose, read-out: Tmax, median (range)
  Tmax: 1.5 h
[2]; [7]
  half-life: 9.4 ± 3.24 h
  Vd/F: 301 ± 77 L
[2]; po, normal hepatic function, single 60 mg oral dose, read-out: AUC0-t
  AUC(0-t): 2760 ± 919 ng·h/mL
[2]; po, normal hepatic function, single 60 mg oral dose, read-out: AUC0-∞
  AUC(0-inf): 2780 ± 924 ng·h/mL
[2]; po, normal hepatic function, single 60 mg oral dose, read-out: Cmax
  Cmax: 589 ± 248 ng/mL
[2]; po, normal hepatic function, single 60 mg oral dose, read-out: Tmax, median (range)
  Tmax: 1.75 h
[2]; po, severe hepatic impairment vs normal hepatic function, read-out: difference in median Tmax
  Tmax: 0.75 h
[2]; [8]
  half-life: 7.54 ± 2.95 h
  Vd/F: 177 ± 47.5 L
[2]; po, severe hepatic impairment, single 60 mg oral dose, read-out: AUC0-t
  AUC(0-t): 3800 ± 1400 ng·h/mL
[2]; po, severe hepatic impairment, single 60 mg oral dose, read-out: AUC0-∞
  AUC(0-inf): 3840 ± 1440 ng·h/mL
[2]; po, severe hepatic impairment, single 60 mg oral dose, read-out: Cmax
  Cmax: 525 ± 197 ng/mL
[2]; po, severe hepatic impairment, single 60 mg oral dose, read-out: Tmax, median (range)
  Tmax: 1 h
[2]; mild hepatic impairment (Child-Pugh Class A) vs normal hepatic function
  higher AUC (total atogepant exposure increase): 24%
[2]; [9]
  AUC0-t Ratio of Geometric Means Test/Reference: 124.40
  AUC0-∞ Ratio of Geometric Means Test/Reference: 124.31
  Cmax Ratio of Geometric Means Test/Reference: 108.97
  change in maximum plasma concentration: +9%
  higher Cmax: 9%
[2]; [10]
  AUC %: 0.73 ± 0.42%
  CL/F: 19.42 ± 6.60 L/h
  λz: 0.0906 ± 0.0300 h⁻¹
[2]; mild, moderate, or severe hepatic impairment
  change in the PK of atogepant: no clinically relevant change
[2]; moderate hepatic impairment (Child-Pugh Class B) vs normal hepatic function
  higher AUC (total atogepant exposure increase): 15%
[2]; [11]
  AUC0-t Ratio of Geometric Means Test/Reference: 113.96
  AUC0-∞ Ratio of Geometric Means Test/Reference: 115.00
  Cmax Ratio of Geometric Means Test/Reference: 88.17
  change in maximum plasma concentration: −12%
  lower Cmax: 12%
[2]; [12]
  AUC %: 1.70 ± 1.44%
  CL/F: 21.33 ± 8.06 L/h
  λz: 0.0781 ± 0.0431 h⁻¹
[2]; [13]
  AUC %: 0.81 ± 0.23%
  CL/F: 24.20 ± 9.42 L/h
  λz: 0.0819 ± 0.0289 h⁻¹
[2]; severe hepatic impairment (Child-Pugh Class C) vs normal hepatic function
  increase in AUC (total atogepant exposure increase): 38%
[2]; [14]
  AUC0-t Ratio of Geometric Means Test/Reference: 137.88
  AUC0-∞ Ratio of Geometric Means Test/Reference: 137.97
  Cmax Ratio of Geometric Means Test/Reference: 95.71
  change in maximum plasma concentration: −4%
  decrease in Cmax: 4%
[2]; [15]
  AUC %: 0.87 ± 0.65%
  CL/F: 17.33 ± 5.40 L/h
  λz: 0.0998 ± 0.0242 h⁻¹
[3]; atogepant alone
  subjects experiencing dizziness (TEAE): 2 subjects
[3]; each treatment (atogepant alone, itraconazole, combination)
  tolerability: well-tolerated
[4]
  inhibition of UGT1A1: does not inhibit
